Results as given in patent US8614240B2, “Benzoxazole derivatives having inhibitory activity against interleukin-6, preparation method thereof, and pharmaceutical composition containing the same” (EWHA University-Industry Collaboration Foundation, priority 2010, dated 2013).

Key:
[1] = tested on: IL-6 induced STAT3 phosphorylation; experiment: Test for inhibitory activity against STAT3 phosphorylation induced by IL-6 (Western blot, HepG2); type: cell-based, human; settings: HepG2, 1, 3, 10, 30, 100 ug/ml, 10 ng/ml IL-6 (FIG. 4)
Protocol: HepG2 cells were divisionally inoculated in 6-well plate in the ratio of 5×10^4 cells/well, and grown to be 80% confluent. After changing to a serum-free medium and incubating for 6 hours, cells were pre-treated with the samples for one hour. […] Then the mixture was centrifuged (13,000×g, 15 minutes) to obtain a lysate as the supernatant. Herein, HepG2 cells not treated with IL-6 and the samples were used as the control group. The concentration of proteins was quantified by means of Bio-Rad DC protein assay kit, and the protein was loaded on 10% SDS-polyacrylamide gel (SDS-PAGE) and electrophoresed at 30 mA for 2 hours. After completion of the electrophoresis, the protein on gel was transcribed into PVDF membrane (Westran® S, pore size […]) at 90V for 90 minutes, and the transcribed membrane was blocked with Tris-buffered solution (T-TBS; 50 mM Tri-HCl, pH 7.6, 150 mM NaCl, 0.2% Tween-20, 5% skim milk) at 4° C. for 12 hours, and washed five time with T-TBS. The membrane was treated with polyclonal antibodies of phospho-STAT3 (1:1000 dilutions, respectively) as the primary antibody for 2 hours. After washing five times with T-TBS, the membrane was reacted with HRP-conjugated anti-rabbit antibody (1:5000 dilutions) as the secondary antibody for one hour. After washing with T-TBS, the film was developed in the dark room by means of ECL.

[2] = tested on: IL-6 induced ERK phosphorylation; experiment: Test for inhibitory activity against ERK phosphorylation induced by IL-6 (Western blot, HepG2); type: cell-based, human; settings: HepG2, 30 μg/ml (FIG. 5)
Protocol: HepG2 cell was divisionally inoculated in 6-well plate, and then starved for 18 hours.
The starved cells were treated with the samples for one hour, and then stimulated with IL-6 or LIF (Upstate Biotechnology, USA) for 10 minutes. The specimen was treated with 5× cell lysis buffer (Promega) sometimes with vortexing under ice for 30 minutes. The cell lysate obtained as described under B in Experiment 1 (3) was dissolved in 8% SDS-PAGE gel, and transferred to the nitrocellulose membrane. This membrane was blocked with Tris-buffered solution (50 mM Tris-HCl (pH 7.4), 150 mM NaCl, 0.1% Tween 20) containing 5% non-fat dry milk at 4° C. Then, it was incubated together with an appropriate primary antibody (ERK) present in Tris-buffered solution (50 mM Tris-HCl (pH 7.4), 150 mM NaCl, 0.1% Tween 20) containing 5% non-fat dry milk, at room temperature for 1-2 hours. This membrane was washed five times with TBS buffer solution for 10 minutes, and incubated with 1:6000 diluted horseradish peroxidase-conjugated secondary antibodies for one hour. The membrane was washed 10 times with TBS buffer solution, and then mixed and incubated with the 1:1 mixture of HRP Substrate Luminol Reagent and HRP Substrate Peroxide Solution as ELC reagent (Millipore Corp. Ma USA). The chemiluminescent signals were visualized with X-ray film.

C57BL/6 female mice = experiment: In vivo test of toxicity of the compounds (body weight, appearance)
Protocol: In the animal experiments, C57BL/6 female mice (control group 4 mice, test group (dose group) 4 mice) obtained from Central Lab. Animal Inc. were used. The experimental animals were acclimated by breeding them at the place established with temperature 23 ±3° C., relative humidity 50 ±10%, lighting time 12 hours (6 a.m.-6 p.m.), number of ventilation 10-20 times/hour, and illuminance 150-300 Lux, for one week. All the testers who evaluated the activity in animals worn high-pressure steam sterilized (121° C., 20 minutes) working clothes, hood, mask and gloves, and conducted the experiment. During the periods of accommodation and quarantine the experimental animals were accommodated in a polycarbonate-made shoes box-type breeding cage (260W×410L×200H mm) by 4 mice in each cage. During the periods of administration and observation, the experimental animals were accommodated in a wire breeding cage (205W×350 L×175H mm) with one mouse in each cage. During the period of experiments, the breeding cages were discriminated with attaching the labels in which the experiment numbers and the animal numbers were entered. The animals were allowed to freely ingest a radiation-sterilized (25 kGy, Picolab) solid feed for experimental animals as the feed, and tap water, which was sterilized with an autoclave, as the drinking water by means of a water bottle. […]

With `CCc1ccc(Nc2nc3cc(NC(=O)c4ccccc4)ccc3o2)cc1` [Compound 3, N-(2-(4-ethylphenylamino)benzo[d]oxazol-5-yl)benzamide] as the compound, how does the “Inhibitory activity on IL-6 induced STAT3 phosphorylation” value [1] read?
Its value is “inhibited IL-6 expression in a concentration-dependent manner”.

And the “Influence on IL-6 induced ERK phosphorylation” value [2]?
Its value is “did not influence on ERK phosphorylation”.

What about the “Change in body weight compared to the control group” value (C57BL/6 female mice; 30 mg/kg intraperitoneally once a day, 5 days, C57BL/6 female mice (FIG. 6)) of the same compound?
The value was “did not show any change in the weight”.

And the “Toxic symptom in appearance” value (C57BL/6 female mice; after 6 days, C57BL/6 female mice)?
Its value is “did not show any toxic symptom in appearance”.
